Data: patent US8710065B2, “Tricyclic inhibitors of kinases” (AbbVie Inc., priority 2011, dated 2014)

Target: T1, GST-tagged-Wee1 kinase (Homo sapiens, UniProt P30291)
T1 construct: purchased Carnabio (Carna Biosciences) 05-177
Experiment: Wee1 time-resolved fluorescence equilibrium binding assay (displacement of Oregon Green-labeled ATP-competitive kinase probe)
Details: read-out: Wee-1 inhibition (Ki)
Outline: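 Ki values derive from competitive displacement, under equilibrium, of a fast-reversible ATP-site Oregon Green kinase probe from GST-tagged Wee1, detected by time-resolved fluorescence.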

T1 sequence (P30291 whole entry): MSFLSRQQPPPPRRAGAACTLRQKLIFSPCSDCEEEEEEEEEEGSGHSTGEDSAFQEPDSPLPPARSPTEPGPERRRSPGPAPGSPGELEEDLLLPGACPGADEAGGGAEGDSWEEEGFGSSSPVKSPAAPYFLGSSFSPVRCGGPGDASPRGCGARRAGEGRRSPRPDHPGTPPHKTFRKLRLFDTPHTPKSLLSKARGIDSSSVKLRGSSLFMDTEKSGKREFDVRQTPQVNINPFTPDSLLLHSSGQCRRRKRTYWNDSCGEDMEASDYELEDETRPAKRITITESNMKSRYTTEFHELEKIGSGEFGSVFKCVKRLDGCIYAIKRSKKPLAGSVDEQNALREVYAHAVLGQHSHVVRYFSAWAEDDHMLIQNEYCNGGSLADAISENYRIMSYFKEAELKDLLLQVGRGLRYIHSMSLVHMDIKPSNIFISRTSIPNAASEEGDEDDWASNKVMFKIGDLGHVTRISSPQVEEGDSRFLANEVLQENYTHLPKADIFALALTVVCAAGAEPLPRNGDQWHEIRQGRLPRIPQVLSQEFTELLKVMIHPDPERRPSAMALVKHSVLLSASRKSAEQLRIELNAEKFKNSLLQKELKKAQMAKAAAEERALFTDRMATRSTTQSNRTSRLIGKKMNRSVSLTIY

Row | Ki | Structure (SMILES)
1 | < 10 nM | CN1Cc2cc(Nc3ncc4c(=O)n(-c5c(F)cccc5Cl)c5nccn5c4n3)ccc2C(C)(C)C1 [Example 97, 6-(2-chloro-6-fluorophenyl)-2-[(2,4,4-trimethyl-1,2,3,4-tetrahydroisoquinolin-7-yl)amino]imidazo[1,2-a]pyrimido[5,4-e]pyrimidin-5(6H)-one]
2 | 10 to 100 nM | CN1CCN(c2ccc(Nc3ncc4c(=O)n(-c5c(F)cccc5F)c5nccn5c4n3)cc2)CC1 [Example 98, 6-(2,6-difluorophenyl)-2-{[4-(4-methylpiperazin-1-yl)phenyl]amino}imidazo[1,2-a]pyrimido[5,4-e]pyrimidin-5(6H)-one]
3 | < 10 nM | O=c1c2cnc(Nc3ccc4c(c3)CN(CCO)CC4)nc2n2ccnc2n1-c1ccccc1Cl [Example 99, 6-(2-chlorophenyl)-2-{[2-(2-hydroxyethyl)-1,2,3,4-tetrahydroisoquinolin-7-yl]amino}imidazo[1,2-a]pyrimido[5,4-e]pyrimidin-5(6H)-one]
4 | < 10 nM | CN1CCCN(c2ccc(Nc3ncc4c(=O)n(-c5ccccc5Cl)c5nccn5c4n3)cc2CO)CC1 [Example 100, 6-(2-chlorophenyl)-2-{[3-(hydroxymethyl)-4-(4-methyl-1,4-diazepan-1-yl)phenyl]amino}imidazo[1,2-a]pyrimido[5,4-e]pyrimidin-5(6H)-one]
5 | < 10 nM | O=c1c2cnc(Nc3ccc(N4CCN5CCCC5C4)cc3)nc2n2ccnc2n1-c1ccccc1Cl (stereo not shown) [Example 101, 6-(2-chlorophenyl)-2-{[4-(hexahydropyrrolo[1,2-a]pyrazin-2(1H)-yl)phenyl]amino}imidazo[1,2-a]pyrimido[5,4-e]pyrimidin-5(6H)-one]
6 | < 10 nM | Cc1cc(Nc2ncc3c(=O)n(-c4ccccc4Cl)c4nccn4c3n2)ccc1O [Example 102, 6-(2-chlorophenyl)-2-[(4-hydroxy-3-methylphenyl)amino]imidazo[1,2-a]pyrimido[5,4-e]pyrimidin-5(6H)-one]
7 | < 10 nM | CCN(CC)CCCOc1ccc(Nc2ncc3c(=O)n(-c4ccccc4Cl)c4nccn4c3n2)cc1C [Example 103, 6-(2-chlorophenyl)-2-({4-[3-(diethylamino)propoxy]-3-methylphenyl}amino)imidazo[1,2-a]pyrimido[5,4-e]pyrimidin-5(6H)-one]
8 | < 10 nM | Cc1cc(Nc2ncc3c(=O)n(-c4ccccc4Cl)c4nccn4c3n2)ccc1N1CCNCC1 [Example 104, 6-(2-chlorophenyl)-2-{[3-methyl-4-(piperazin-1-yl)phenyl]amino}imidazo[1,2-a]pyrimido[5,4-e]pyrimidin-5(6H)-one]
9 | < 10 nM | Cc1cc(Nc2ncc3c(=O)n(-c4ccccc4Cl)c4nccn4c3n2)ccc1N1CCCNCC1 [Example 105, 6-(2-chlorophenyl)-2-{[4-(1,4-diazepan-1-yl)-3-methylphenyl]amino}imidazo[1,2-a]pyrimido[5,4-e]pyrimidin-5(6H)-one]
10 | < 10 nM | O=c1c2cnc(Nc3ccc4c(c3)CCCNC4)nc2n2ccnc2n1-c1ccccc1Cl [Example 106, 6-(2-chlorophenyl)-2-(2,3,4,5-tetrahydro-1H-2-benzazepin-7-ylamino)imidazo[1,2-a]pyrimido[5,4-e]pyrimidin-5(6H)-one]
11 | < 10 nM | CN1CCc2ccc(Nc3ncc4c(=O)n(-c5ccccc5Cl)c5nccn5c4n3)cc2CC1 [Example 107, 6-(2-chlorophenyl)-2-[(3-methyl-2,3,4,5-tetrahydro-1H-3-benzazepin-7-yl)amino]imidazo[1,2-a]pyrimido[5,4-e]pyrimidin-5(6H)-one]
12 | < 10 nM | CN1CCc2ccc(Nc3ncc4c(=O)n(-c5ccccc5Cl)c5nccn5c4n3)cc2C1(C)C [Example 108, 6-(2-chlorophenyl)-2-[(1,1,2-trimethyl-1,2,3,4-tetrahydroisoquinolin-7-yl)amino]imidazo[1,2-a]pyrimido[5,4-e]pyrimidin-5(6H)-one]
13 | < 10 nM | O=c1c2cnc(Nc3ccc4c(c3)CNCC43CC3)nc2n2ccnc2n1-c1c(Cl)cccc1Cl [Example 109, 6-(2,6-dichlorophenyl)-2-(2′,3′-dihydro-1′H-spiro[cyclopropane-1,4′-isoquinolin]-7′-ylamino)imidazo[1,2-a]pyrimido[5,4-e]pyrimidin-5(6H)-one]
14 | < 10 nM | Cc1cc(Nc2ncc3c(=O)n(-c4c(Cl)cccc4Cl)c4nccn4c3n2)ccc1N1CCNCC1 [Example 110, 6-(2,6-dichlorophenyl)-2-{[3-methyl-4-(piperazin-1-yl)phenyl]amino}imidazo[1,2-a]pyrimido[5,4-e]pyrimidin-5(6H)-one]
15 | < 10 nM | O=c1c2cnc(Nc3ccc4c(c3)CNCC4)nc2n2ccnc2n1-c1c(Cl)cccc1Cl [Example 111, 6-(2,6-dichlorophenyl)-2-(1,2,3,4-tetrahydroisoquinolin-7-ylamino)imidazo[1,2-a]pyrimido[5,4-e]pyrimidin-5(6H)-one]
16 | < 10 nM | CCc1cc(Nc2ncc3c(=O)n(-c4ccccc4Cl)c4nccn4c3n2)ccc1N1CCN(C)CC1 [Example 112, 6-(2-chlorophenyl)-2-{[3-ethyl-4-(4-methylpiperazin-1-yl)phenyl]amino}imidazo[1,2-a]pyrimido[5,4-e]pyrimidin-5(6H)-one]
17 | < 10 nM | CC1(C)CN(CC2CCCCC2)Cc2cc(Nc3ncc4c(=O)n(-c5ccccc5Cl)c5nccn5c4n3)ccc21 [Example 113, 6-(2-chlorophenyl)-2-{[2-(cyclohexylmethyl)-4,4-dimethyl-1,2,3,4-tetrahydroisoquinolin-7-yl]amino}imidazo[1,2-a]pyrimido[5,4-e]pyrimidin-5(6H)-one]
18 | < 10 nM | CN(C)C1Cc2ccc(Nc3ncc4c(=O)n(-c5c(Cl)cccc5Cl)c5nccn5c4n3)cc2C1 (stereo not shown) [Example 114, 6-(2,6-dichlorophenyl)-2-{[2-(dimethylamino)-2,3-dihydro-1H-inden-5-yl]amino}imidazo[1,2-a]pyrimido[5,4-e]pyrimidin-5(6H)-one]
19 | < 10 nM | CC(C)N1CCN(c2ccc(Nc3ncc4c(=O)n(-c5c(Cl)cccc5Cl)c5nccn5c4n3)cc2)CC1 [Example 115, 6-(2,6-dichlorophenyl)-2-({4-[4-(propan-2-yl)piperazin-1-yl]phenyl}amino)imidazo[1,2-a]pyrimido[5,4-e]pyrimidin-5(6H)-one]
20 | < 10 nM | O=c1c2cnc(Nc3ccc(N4CCN5CCCC5C4)cc3)nc2n2ccnc2n1-c1c(Cl)cccc1Cl (stereo not shown) [Example 116, 6-(2,6-dichlorophenyl)-2-{[4-(hexahydropyrrolo[1,2-a]pyrazin-2(1H)-yl)phenyl]amino}imidazo[1,2-a]pyrimido[5,4-e]pyrimidin-5(6H)-one]
21 | 10 to 100 nM | CCC(CC)CN1Cc2cc(Nc3ncc4c(=O)n(-c5ccccc5Cl)c5nccn5c4n3)ccc2C(C)(C)C1 [Example 117, 6-(2-chlorophenyl)-2-{[2-(2-ethylbutyl)-4,4-dimethyl-1,2,3,4-tetrahydroisoquinolin-7-yl]amino}imidazo[1,2-a]pyrimido[5,4-e]pyrimidin-5(6H)-one]
22 | < 10 nM | CN1CCN(CCc2ccc(Nc3ncc4c(=O)n(-c5c(Cl)cccc5Cl)c5nccn5c4n3)cc2)CC1 [Example 118, 6-(2,6-dichlorophenyl)-2-({4-[2-(4-methylpiperazin-1-yl)ethyl]phenyl}amino)imidazo[1,2-a]pyrimido[5,4-e]pyrimidin-5(6H)-one]
